These results are taken from publication PMC11390765 (Cancer Chemotherapy and Pharmacology, 2024).

This test deals with advanced solid tumors. Kind of test: Exploratory efficacy (RECIST 1.1, investigator assessment). The test is classed as in vivo, human. To be noted: capivasertib 400 mg BID 4 days on/3 days off. On the procedure: Efficacy was evaluated as an exploratory endpoint by investigator assessment, and per Response Evaluation Criteria in Solid Tumors (RECIST) version 1.1. Tumor assessments were performed by CT and/or MRI scans at screening and then every 8 weeks (± 7 days; earlier if clinically indicated) for 2 years, and then every 12 weeks until disease progression. Radiographic bone scans were performed at screening and repeated as clinically indicated, depending on tumor type.
Safety analyses were performed on the full analysis set, which consisted of all patients who received at least one dose of midazolam and/or capivasertib, irrespective of protocol adherence or continued participation in the study. Efficacy analyses were also performed on the full analysis set. Summary and/or descriptive statistics were used to analyze baseline demographic, safety, and efficacy data; PFS and DoR were estimated using Kaplan–Meier methodology.

As for `NC1(C(=O)N[C@@H](CCO)c2ccc(Cl)cc2)CCN(c2nc[nH]c3nccc2-3)CC1` [capivasertib], the “Median DoR (95% CI)” value is recorded as 3.8 months and the “patients with confirmed partial response to treatment” value is recorded as “Two”. Further, for the setting “full analysis set”, the “CBR (95% CI) at 24 weeks” value came out at 14.3% and the “ORR (95% CI)” value was 9.5%. For the setting “full analysis set, 15 PFS events”, the “median PFS (95% CI)” value is 3.4 months.
